Measured values published in PubChem BioAssay (NCI).
Values joined by “and” are separate entries in the source; they are usually repeats but may differ in a detail not shown here. Identical values can stand only once.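 Values below derive from 48-hour exposures of cells grown in 96-well plates, with endpoints linearly interpolated between the two concentrations bracketing the appropriate inhibition level. GI50 is the concentration that inhibits growth by half. TGI is the concentration that stops growth completely.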

Legend:
Test in all cases: NCI tumour cell line growth inhibition, 48 h
UACC-62 melanoma = tested on: UACC-62 melanoma
KM20L2 colon = tested on: KM20L2 colon
UACC-257 melanoma = tested on: UACC-257 melanoma
A498 renal = tested on: A498 renal
SF-539 CNS = tested on: SF-539 CNS
SF-295 CNS = tested on: SF-295 CNS
KM12 colon = tested on: KM12 colon
XF 498 CNS = tested on: XF 498 CNS
DMS 114 small cell lung = tested on: DMS 114 small cell lung
HCT-116 colon = tested on: HCT-116 colon
HL-60(TB) leukemia = tested on: HL-60(TB) leukemia

Row | Structure (SMILES) | TGI (UACC-62 melanoma) | TGI (KM20L2 colon) [µM] | TGI (UACC-257 melanoma) [µM] | TGI (A498 renal) [µM] | TGI (SF-539 CNS) | TGI (SF-295 CNS) | TGI (KM12 colon) [µM] | TGI (XF 498 CNS) [µM] | TGI (DMS 114 small cell lung) [µM] | TGI (HCT-116 colon) | TGI (HL-60(TB) leukemia) | GI50 (HCT-116 colon) | GI50 (UACC-62 melanoma) [µM] | GI50 (SF-539 CNS) [µM] | GI50 (SF-295 CNS) [µM] | GI50 (KM12 colon)
1 | CCCc1[nH]nc(CCC(=O)N(Cc2ccccc2)Cc2ccccc2)c1CC | > 100 µM | > 100 | > 100 | > 100 | > 100 µM | > 100 µM | > 100 | > 100 | > 100 |  |  |  |  |  |  | 
2 | CNS(=O)(=O)NN(C)S(=O)(=O)c1ccc(F)cc1 | > 100 µM | > 100 | > 100 | > 100 | > 100 µM | > 100 µM | > 100 | > 100 | > 100 | > 100 µM | > 100 µM |  |  |  |  | 
3 | CC1=NCCc2c1[nH]c1cc(O)ccc21 | > 100 µM | > 100 | > 100 | > 100 | > 100 µM | > 100 µM | > 100 | > 100 | > 100 | > 100 µM | > 100 µM |  |  |  |  | 
4 | COc1cc(C2c3cc4c(cc3[C@@H](Nc3ccc(C#N)cc3)C3COC(=O)[C@H]23)OCO4)cc(OC)c1O (some centres not stated) | 9.01 µM and 14.1 µM | 75 | 33.3 | 11.4 | 11.3 µM and 3.64 µM | 8.74 µM and 3.65 µM |  | 22.8 | 4.14 | 10.8 µM and 2.45 µM and 11.4 µM | 1.12 µM and 0.702 µM | 0.452 µM and 0.389 µM | 0.783 | 0.431 | 0.336 | 1.13 µM and 1.61 µM
5 | COc1nc(NC2OCC(OC(C)=O)C(OC(C)=O)C2OC(C)=O)c(N=CC=Nc2c(NC3OCC(OC(C)=O)C(OC(C)=O)C3OC(C)=O)nc(OC)n(C)c2=O)c(=O)n1C (configuration not stated) | > 100 µM | > 100 | > 100 | > 100 | > 100 µM | > 100 µM | > 100 | 95.9 |  | > 100 µM | > 100 µM |  |  |  |  | 
6 | COCCN1C2=CCCCC2=Nc2c1nc(N)[nH]c2=O | > 100 µM | > 100 | > 100 | > 100 | > 100 µM | > 100 µM | > 100 | > 100 | > 100 | > 100 µM | > 100 µM |  |  |  |  | 
7 | COC(=O)c1csnn1 | > 100 µM | > 100 | > 100 |  | > 100 µM | > 100 µM | > 100 | > 100 | > 100 | > 100 µM | > 100 µM |  |  |  |  | 
8 | CC(C)C(=O)Nc1nc2nc[nH]c2c(=O)[nH]1 | > 100 µM | > 100 | > 100 | > 100 | > 100 µM | > 100 µM | > 100 | > 100 | > 100 | > 100 µM | > 100 µM |  |  |  |  | 
9 | COC(=O)CCC(NC(=S)N/N=C(\C)c1nccs1)C(=O)OC (configuration not stated) | > 100 µM | > 100 | > 100 | > 100 | > 100 µM | > 100 µM | > 100 | > 100 | 57.5 | > 100 µM | 47.5 µM |  |  |  |  | 
10 | CCCCCCCCCc1cc(=O)c2ccc(OCc3ccccc3)cc2o1 | > 100 µM | > 100 | > 100 |  | > 100 µM | > 100 µM | > 100 | > 100 | > 100 | > 100 µM | 46.4 µM |  |  |  |  | 
11 | O=C(O)c1ccc([Se][Se]c2ccc(C(=O)O)cc2)cc1 | 33.4 µM | > 100 |  |  | 92.1 µM | 54.7 µM | 68.4 | 81.1 | 54 | 34.5 µM |  |  |  |  |  | 
12 | O=c1c2c([nH]c3cc4c(cc13)OCO4)-c1ccccc1CC2 | > 100 µM | > 100 | > 100 | > 100 | > 100 µM | > 100 µM |  | > 100 | > 100 | > 100 µM | > 100 µM |  |  |  |  | 
